Measured values as given in PubChem BioAssay AID328 (DTP/NCI, 2004).
“And” between values parts separate entries of the source, which are not always exact repeats. Identical values can stand only once. Toxic doses and inconclusive results are not listed.

Tested on: BDF1 mice, P388 leukemia ip, median survival T/C
Test: NCI In Vivo Anticancer Drug Screen. Data for tumor model P388 Leukemia (intraperitoneal) in B6D2F1 (BDF1) mice
Settings: endpoint: median survival time, higher = longer survival
In short: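 Each value expresses how treatment altered survival: treated-mouse outcome over vehicle-mouse outcome, both groups bearing the transplanted tumour.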

[1] = dose: 100.0 mg/kg/injection, schedule: Q04DX003 (ip), vehicle: saline
[2] = dose: 100.0 mg/kg/injection, schedule: Q01DX009 (ip), vehicle: saline with Tween-80
[3] = dose: 200.0 mg/kg/injection, schedule: Q01DX009 (ip), vehicle: saline with Tween-80
[4] = dose: 6.25 mg/kg/injection, schedule: Q01DX009 (ip), vehicle: saline with Tween-80
[5] = dose: 50.0 mg/kg/injection, schedule: Q01DX009 (ip), vehicle: saline
[6] = dose: 50.0 mg/kg/injection, schedule: Q04DX003 (ip), vehicle: saline
[7] = dose: 25.0 mg/kg/injection, schedule: Q04DX003 (ip), vehicle: other
[8] = dose: 50.0 mg/kg/injection, schedule: Q01DX009 (ip), vehicle: other
[9] = dose: 50.0 mg/kg/injection, schedule: Q04DX003 (ip), vehicle: other
[10] = dose: 100.0 mg/kg/injection, schedule: Q01DX009 (ip), vehicle: other
[11] = dose: 100.0 mg/kg/injection, schedule: Q04DX003 (ip), vehicle: other
[12] = dose: 12.5 mg/kg/injection, schedule: Q01DX009 (ip), vehicle: saline with Tween-80
[13] = dose: 25.0 mg/kg/injection, schedule: Q01DX009 (ip), vehicle: saline with Tween-80
[14] = dose: 50.0 mg/kg/injection, schedule: Q01DX009 (ip), vehicle: saline with Tween-80

NC(CSC(c1ccccc1)(c1ccccc1)c1ccccc1)C(=O)O (stereo not drawn)
T/C (dose: 3.0 mg/kg/injection, schedule: Q01DX009 (ip), vehicle: Klucel (hydroxypropylcellulose) (HPC)): 122 % of control
T/C (dose: 4.8 mg/kg/injection, schedule: Q04DX003 (ip), vehicle: Klucel (hydroxypropylcellulose) (HPC)): 108 % of control
T/C (dose: 7.2 mg/kg/injection, schedule: Q04DX003 (ip), vehicle: Klucel (hydroxypropylcellulose) (HPC)): 100 % of control
T/C (dose: 10.0 mg/kg/injection, schedule: Q01DX009 (ip), vehicle: Klucel (hydroxypropylcellulose) (HPC)): 175 % of control
T/C (dose: 14.4 mg/kg/injection, schedule: Q01DX009 (ip), vehicle: other): 150 % of control
T/C (dose: 16.0 mg/kg/injection, schedule: Q01DX009 (ip), vehicle: Klucel (hydroxypropylcellulose) (HPC)): 177 % of control
T/C (dose: 24.0 mg/kg/injection, schedule: Q01DX009 (ip), vehicle: other): 115 % of control
T/C (dose: 25.0 mg/kg/injection, schedule: Q01DX009 (ip), vehicle: Klucel (hydroxypropylcellulose) (HPC)): 200 % of control and 204 % of control
T/C (dose: 25.0 mg/kg/injection, schedule: Q04DX003 (ip), vehicle: Klucel (hydroxypropylcellulose) (HPC)): 231 % of control
T/C (dose: 35.0 mg/kg/injection, schedule: Q01DX009 (ip), vehicle: Klucel (hydroxypropylcellulose) (HPC)): 227 % of control
T/C (dose: 40.0 mg/kg/injection, schedule: Q01DX009 (ip), vehicle: other): 123 % of control
T/C (dose: 50.0 mg/kg/injection, schedule: Q01DX009 (ip), vehicle: Klucel (hydroxypropylcellulose) (HPC)): 86 % of control
T/C (dose: 50.0 mg/kg/injection, schedule: Q04DX003 (ip), vehicle: Klucel (hydroxypropylcellulose) (HPC)): 186 % of control
T/C (dose: 66.0 mg/kg/injection, schedule: Q04DX003 (ip), vehicle: saline): 272 % of control
T/C (dose: 100.0 mg/kg/injection, schedule: Q04DX003 (ip), vehicle: Klucel (hydroxypropylcellulose) (HPC)): 240 % of control
T/C [1]: 90 % of control

CC(OC(=O)Nc1ccccc1)C(=O)O (stereo not drawn)
T/C [2]: 88 % of control
T/C [3]: 92 % of control
T/C (dose: 400.0 mg/kg/injection, schedule: Q01DX009 (ip), vehicle: saline with Tween-80): 103 % of control

CC(=O)C1=C(O)C2(O)C(=O)c3c(c(C)c4ccc(C)c(O)c4c3O)CC2C(N)C1=O (stereo not drawn)
T/C (dose: 1.56 mg/kg/injection, schedule: Q01DX009 (ip), vehicle: saline with Tween-80): 109 % of control
T/C (dose: 3.13 mg/kg/injection, schedule: Q01DX009 (ip), vehicle: saline with Tween-80): 104 % of control
T/C [4]: 118 % of control

Nc1ccn(CC(=O)c2ccco2)c(=O)n1
T/C (dose: 6.25 mg/kg/injection, schedule: Q01DX009 (ip), vehicle: saline): 109 % of control
T/C (dose: 12.5 mg/kg/injection, schedule: Q01DX009 (ip), vehicle: saline): 95 % of control
T/C (dose: 25.0 mg/kg/injection, schedule: Q01DX009 (ip), vehicle: saline): 95 % of control and 109 % of control
T/C [5]: 86 % of control
T/C [6]: 105 % of control
T/C [1]: 105 % of control

CCCOC(=O)c1ccc([N+](=O)[O-])cc1
T/C (dose: 100.0 mg/kg/injection, schedule: Q01DX009 (ip), vehicle: Klucel (hydroxypropylcellulose) (HPC)): 95 % of control
T/C (dose: 200.0 mg/kg/injection, schedule: Q01DX009 (ip), vehicle: Klucel (hydroxypropylcellulose) (HPC)): 100 % of control
T/C (dose: 400.0 mg/kg/injection, schedule: Q01DX009 (ip), vehicle: Klucel (hydroxypropylcellulose) (HPC)): 100 % of control

CN(C)C(=O)c1ccc(C(C)(C)C)cc1
T/C (dose: 12.5 mg/kg/injection, schedule: Q01DX009 (ip), vehicle: other): 104 % of control
T/C (dose: 12.5 mg/kg/injection, schedule: Q04DX003 (ip), vehicle: other): 106 % of control
T/C (dose: 25.0 mg/kg/injection, schedule: Q01DX009 (ip), vehicle: other): 103 % of control
T/C [7]: 121 % of control
T/C [8]: 113 % of control
T/C [9]: 97 % of control
T/C [10]: 101 % of control
T/C [11]: 106 % of control
T/C (dose: 200.0 mg/kg/injection, schedule: Q04DX003 (ip), vehicle: other): 95 % of control

NC(=O)Oc1cc(OC(N)=O)cc(N(CCCl)CCCl)c1
T/C [12]: 158 % of control
T/C [13]: 181 % of control
T/C [7]: 179 % of control
T/C [14]: 168 % of control
T/C [9]: 186 % of control
T/C [11]: 216 % of control

OC(CBr)c1ccc(Cl)cc1 (stereo not drawn)
T/C (dose: 100.0 mg/kg/injection, schedule: Q04DX003 (ip), vehicle: saline with Tween-80): 100 % of control
T/C (dose: 200.0 mg/kg/injection, schedule: Q04DX003 (ip), vehicle: saline with Tween-80): 95 % of control
T/C (dose: 400.0 mg/kg/injection, schedule: Q04DX003 (ip), vehicle: saline with Tween-80): 95 % of control

CC#CC(=O)O
T/C [12]: 100 % of control
T/C [13]: 106 % of control
T/C [14]: 109 % of control
T/C [2]: 106 % of control

[Cl][Hg][CH2]CC1CC=CCC1 (stereo not drawn)
T/C [4]: 113 % of control
T/C (dose: 6.25 mg/kg/injection, schedule: Q04DX003 (ip), vehicle: saline sonified): 104 % of control
T/C [12]: 117 % of control
T/C (dose: 12.5 mg/kg/injection, schedule: Q04DX003 (ip), vehicle: saline sonified): 122 % of control
T/C (dose: 25.0 mg/kg/injection, schedule: Q04DX003 (ip), vehicle: saline sonified): 118 % of control

OCC1OC(n2ccc3c2ncn2ccnc32)C(O)C1O (stereo not drawn)
T/C (dose: 25.0 mg/kg/injection, schedule: Q04DX003 (ip), vehicle: saline): 110 % of control
T/C [6]: 102 % of control
T/C [1]: 96 % of control
T/C (dose: 200.0 mg/kg/injection, schedule: Q04DX003 (ip), vehicle: saline): 102 % of control

N#CC(O)c1ccccc1 (stereo not drawn)
T/C (dose: 2.5 mg/kg/injection, schedule: Q01DX010 (ip), vehicle: acetone): 107 % of control
T/C (dose: 5.0 mg/kg/injection, schedule: Q01DX010 (ip), vehicle: acetone): 92 % of control
T/C (dose: 10.0 mg/kg/injection, schedule: Q01DX010 (ip), vehicle: acetone): 92 % of control

CN=S(=O)(OCCN(C)CCOS(=O)(=NC)c1ccc(C)cc1)c1ccc(C)cc1 (stereo not drawn)
T/C (dose: 50.0 mg/kg/injection, schedule: Q01DX009 (ip), vehicle: saline + alcohol): 112 % of control
T/C (dose: 100.0 mg/kg/injection, schedule: Q01DX009 (ip), vehicle: saline + alcohol): 103 % of control
T/C (dose: 200.0 mg/kg/injection, schedule: Q01DX009 (ip), vehicle: saline + alcohol): 116 % of control

NNc1cccc(Cl)n1
T/C [14]: 103 % of control

CSc1cc(C)c(O)c(C)c1
T/C [8]: 104 % of control
T/C [10]: 104 % of control
T/C (dose: 200.0 mg/kg/injection, schedule: Q01DX009 (ip), vehicle: other): 104 % of control

O=C(NO)c1ccc([N+](=O)[O-])cc1
T/C (dose: 240.0 mg/kg/injection, schedule: Q01DX010 (ip), vehicle: water): 92 % of control
T/C (dose: 270.0 mg/kg/injection, schedule: Q01DX010 (ip), vehicle: water): 90 % of control and 113 % of control
T/C (dose: 360.0 mg/kg/injection, schedule: Q01DX010 (ip), vehicle: water): 123 % of control

CCCCCCCCCCCC(=O)Nc1ccc(C(=O)OCC)cc1
T/C (dose: 100.0 mg/kg/injection, schedule: Q01DX001 (ip), vehicle: saline with Tween-80): 91 % of control
T/C (dose: 200.0 mg/kg/injection, schedule: Q01DX001 (ip), vehicle: saline with Tween-80): 87 % of control
T/C (dose: 400.0 mg/kg/injection, schedule: Q01DX001 (ip), vehicle: saline with Tween-80): 91 % of control

Cc1ncc(O)c(CO)c1O
T/C [5]: 110 % of control
T/C (dose: 100.0 mg/kg/injection, schedule: Q01DX009 (ip), vehicle: saline): 94 % of control
T/C (dose: 200.0 mg/kg/injection, schedule: Q01DX009 (ip), vehicle: saline): 99 % of control
T/C (dose: 400.0 mg/kg/injection, schedule: Q01DX009 (ip), vehicle: saline): 107 % of control

CCCOn1nnc2cc(Cl)ccc21
T/C [2]: 100 % of control
T/C [3]: 92 % of control

S=C(NCCNC(=S)[S][Sn]([c]1ccccc1)([c]1ccccc1)[c]1ccccc1)[S][Sn]([c]1ccccc1)([c]1ccccc1)[c]1ccccc1
T/C (dose: 3.3 mg/kg/injection, schedule: Q01DX009 (ip), vehicle: saline with Tween-80): 100 % of control
T/C (dose: 5.0 mg/kg/injection, schedule: Q01DX009 (ip), vehicle: saline with Tween-80): 117 % of control
T/C (dose: 7.5 mg/kg/injection, schedule: Q01DX009 (ip), vehicle: saline with Tween-80): 108 % of control
T/C [14]: 115 % of control
